Laboratory results from article PMC7719179, “Small molecule inhibition of Dynamin-dependent endocytosis targets multiple niche signals and impairs leukemia stem cells” (Nature Communications, 2020).
Where “and” joins values, the source holds several entries; their conditions need not be identical. Equal values may be shown once.

Assays:
[1] = test system: pSTAT5 in patient-derived ETP-ALL and T-ALL cells; test: IL-7-induced pSTAT5 in human ETP-ALL and T-ALL xenograft cells; format: cell-based; settings: for pSTAT5 relative expression, FOLD: fold over unstimulated
Method: Splenocytes from secondary xenografts were processed as previously described. […] Flow cytometric analysis of surface IL-7R levels and intracellular levels of pSTAT5 were performed as described in the FACS analysis section. For activation of NOTCH1-mediated signalling, 5 × 10^5 rested leukemia cells were seeded on OP9-DL1 stromal cells. Co-culture on OP9 stromal cells was used as a negative control. After 16 h of co-culture, leukemia cells were washed twice using cold PBS 1×. Flow cytometric analysis of NOTCH1 expression and intracellular levels of HES1 were performed as described in the FACS analysis section.

Lmo2^Tg primary T-ALL = test: Survival (Kaplan-Meier) and leukemia growth delay in recipients of Lmo2^Tg primary T-ALL; format: in vivo, mouse; settings: * = non-leukemic at endpoint
Method: Single-cell suspension of murine thymus cells were intravenously injected into sublethally irradiated (650 Rads) isogenic Ly5.1 (Cd45.1) mice. Fold expansion was calculated by dividing the absolute output number of donor-derived DN3a cells harvested at the experimental endpoint by the respective number of DN3a thymocytes injected in each recipient. Limiting dilution transplantations were performed as described, by injecting various doses (10^1 to 10^6) of thymocytes per recipient, and mice were scored positive when T-cell lineage reconstitution assessed 6 weeks after transplantation was >1%. Leukemia-propagating cell frequency was calculated by applying Poisson statistics using the ELDA: Extreme Limiting Dilution Analysis software (Walter and Eliza Hall Institute Bioinformatics, Parkville VIC, Australia)[96]. Limiting dilution transplantations were performed independently from any other transplantation assays, using thymocytes from three different Lmo2^Tg mice for each cohort. Kaplan–Meier survival and statistical analysis were performed using GraphPad Prism. 6.0 software (GraphPad Software Inc, San Diego CA, USA). […]
derived leukemic cells (%Cd45.2+) in the peripheral blood (PB) of recipients injected with Lmo2 Tg primary leukemias (T-ALL 582, n=5/cohort; T-ALL 273, n=7/cohort; T-ALL 249, n=5/cohort) treated with Dynole 34-2, VXL or combination therapy. […]

[2] = test system: IL-3R, GM-CSFR and KIT internalization in patient-derived AML cells; test: Surface expression of IL-3R, GM-CSFR and KIT in patient-derived AML cells; format: cell-based, human; settings: for GM-CSFR FOLD / IL-3R FOLD / KIT FOLD: relative expression vs Unstimulated

With `CCCCCCCCNC(=O)C(C#N)=Cc1cn(CCCN(C)C)c2ccccc12` [Dynole 34-2, 2-Cyano-N-octyl-3-(1-(3-dimethylaminopropyl)-1H-indol-3-yl)-acrylamide] the “pSTAT5 relative expression, MFI” value ([1]; ALL8) was 3715 MFI and 3714 MFI, the “pSTAT5 relative expression, FOLD” value ([1]; ALL8) was 1.22 FOLD and the “pSTAT5 relative expression, MFI” value ([1]; ALL16) was 2090 MFI and 2194 MFI. The “pSTAT5 relative expression, FOLD” value ([1]; ALL16) was 0.95 FOLD and 0.91 FOLD, the “pSTAT5 relative expression, MFI” value ([1]; ALL29) was 3568 MFI and 3339 MFI and the “pSTAT5 relative expression, FOLD” value ([1]; ALL29) was 1.36 FOLD and 1.45 FOLD. For the same compound, the “pSTAT5 relative expression, MFI” value ([1]; ALL31) was 2246 MFI and 2071 MFI, the “pSTAT5 relative expression, FOLD” value ([1]; ALL31) was 1.23 FOLD and 1.34 FOLD and the “pSTAT5 relative expression, MFI” value ([1]; ALL33) was 2163 MFI and 2294 MFI. For the same compound, the “pSTAT5 relative expression, FOLD” value ([1]; ALL33) was 1.35 FOLD and 1.27 FOLD, the “pSTAT5 relative expression, MFI” value ([1]; ETP1) was 6780 MFI and 6557 MFI and the “pSTAT5 relative expression, FOLD” value ([1]; ETP1) was 2.05 FOLD and 2.11 FOLD. The “pSTAT5 relative expression, MFI” value ([1]; ETP5) was 3059 MFI and 3334 MFI, the “pSTAT5 relative expression, FOLD” value ([1]; ETP5) was 1.58 FOLD and 1.45 FOLD and the “pSTAT5 relative expression, MFI” value ([1]; ETP8) was 6837 MFI and 6719 MFI. For the same compound, the “pSTAT5 relative expression, FOLD” value ([1]; ETP8) was 2.21 FOLD and 2.25 FOLD, the “pSTAT5 relative expression, MFI” value ([1]; ETP12) was 6017 MFI and 6210 MFI and the “pSTAT5 relative expression, FOLD” value ([1]; ETP12) was 2.47 FOLD and 2.39 FOLD. For the same compound, the “pSTAT5 relative expression, MFI” value ([1]; ETP13) was 7147 MFI and 4013 MFI, the “pSTAT5 relative expression, FOLD” value ([1]; ETP13) was 0.99 FOLD and 1.76 FOLD and the “pSTAT5 relative expression, MFI” value ([1]; ETP14) was 7024 MFI and 6660 MFI. The “pSTAT5 relative expression, FOLD” value ([1]; ETP14) was 1.46 FOLD and 1.54 FOLD, the pSTAT5 protein levels ([1]; immature and mature subtypes of human T-ALL, 1 h pre-treatment, result in words) was “significantly decreased” and the Time to leukemia (Lmo2^Tg primary T-ALL; recipients of primary T-ALL 249) was 3.7 weeks and 3 weeks and 3.4 weeks. The Time to leukemia (Lmo2^Tg primary T-ALL; recipients of primary T-ALL 582) was 4.1 weeks and 5.6 weeks and 5.7 weeks and 6 weeks and 6.3 weeks, the “GM-CSFR MFI” value ([2]; AML01-021) was 11447 MFI and the “IL-3R MFI” value ([2]; AML01-021) was 745 MFI. For the same compound, the “KIT MFI” value ([2]; AML01-021) was 1568 MFI, the “GM-CSFR FOLD” value ([2]; AML01-021) was 1.03 and the “IL-3R FOLD” value ([2]; AML01-021) was 1.00. For the same compound, the “KIT FOLD” value ([2]; AML01-021) was 0.89, the “GM-CSFR MFI” value ([2]; AML01-050) was 15894 MFI and the “IL-3R MFI” value ([2]; AML01-050) was 4010 MFI. For the same compound, the “KIT MFI” value ([2]; AML01-050) was 273 MFI, the “GM-CSFR FOLD” value ([2]; AML01-050) was 1.01 and the “IL-3R FOLD” value ([2]; AML01-050) was 1.14. For the same compound, the “KIT FOLD” value ([2]; AML01-050) was 1.25, the “GM-CSFR MFI” value ([2]; AML01-072) was 971 MFI and the “IL-3R MFI” value ([2]; AML01-072) was 7383 MFI. The “KIT MFI” value ([2]; AML01-072) was 1318 MFI, the “GM-CSFR FOLD” value ([2]; AML01-072) was 1.12 and the “IL-3R FOLD” value ([2]; AML01-072) was 1.05. For the same compound, the “KIT FOLD” value ([2]; AML01-072) was 1.74, the “GM-CSFR MFI” value ([2]; AML01-226) was 10157 MFI and the “IL-3R MFI” value ([2]; AML01-226) was 983 MFI. For the same compound, the “KIT MFI” value ([2]; AML01-226) was 612 MFI, the “GM-CSFR FOLD” value ([2]; AML01-226) was 1.05 and the “IL-3R FOLD” value ([2]; AML01-226) was 0.99. For the same compound, the “KIT FOLD” value ([2]; AML01-226) was 0.58, the “GM-CSFR MFI” value ([2]; AML01-307) was 649 MFI and the “IL-3R MFI” value ([2]; AML01-307) was 4023 MFI. The “KIT MFI” value ([2]; AML01-307) was 5991 MFI, the “GM-CSFR FOLD” value ([2]; AML01-307) was 1.01 and the “IL-3R FOLD” value ([2]; AML01-307) was 0.94. The “KIT FOLD” value ([2]; AML01-307) was 0.93, the “GM-CSFR MFI” value ([2]; AML02-078) was 13405 MFI and the “IL-3R MFI” value ([2]; AML02-078) was 4410 MFI. The “KIT MFI” value ([2]; AML02-078) was 1516 MFI, the “GM-CSFR FOLD” value ([2]; AML02-078) was 1.27 and the “IL-3R FOLD” value ([2]; AML02-078) was 1.17. For the same compound, the “KIT FOLD” value ([2]; AML02-078) was 0.91, the “GM-CSFR MFI” value ([2]; AML02-123) was 1180 MFI and the “IL-3R MFI” value ([2]; AML02-123) was 2544 MFI. For the same compound, the “KIT MFI” value ([2]; AML02-123) was 34855 MFI, the “GM-CSFR FOLD” value ([2]; AML02-123) was 1.42 and the “IL-3R FOLD” value ([2]; AML02-123) was 1.10. For the same compound, the “KIT FOLD” value ([2]; AML02-123) was 0.82, the “GM-CSFR MFI” value ([2]; AML02-232) was 16645 MFI and the “IL-3R MFI” value ([2]; AML02-232) was 506 MFI. The “KIT MFI” value ([2]; AML02-232) was 357 MFI, the “GM-CSFR FOLD” value ([2]; AML02-232) was 1.09 and the “IL-3R FOLD” value ([2]; AML02-232) was 1.00. For the same compound, the “KIT FOLD” value ([2]; AML02-232) was 0.82, the “GM-CSFR MFI” value ([2]; AML03-330) was 10769 MFI and the “IL-3R MFI” value ([2]; AML03-330) was 356 MFI. For the same compound, the “KIT MFI” value ([2]; AML03-330) was 372 MFI, the “GM-CSFR FOLD” value ([2]; AML03-330) was 1.12 and the “IL-3R FOLD” value ([2]; AML03-330) was 0.98. For the same compound, the “KIT FOLD” value ([2]; AML03-330) was 0.79, the “GM-CSFR MFI” value ([2]; AML03-331) was 9530 MFI and the “IL-3R MFI” value ([2]; AML03-331) was 798 MFI. For the same compound, the “KIT MFI” value ([2]; AML03-331) was 1709 MFI, the “GM-CSFR FOLD” value ([2]; AML03-331) was 0.88 and the “IL-3R FOLD” value ([2]; AML03-331) was 1.00. The “KIT FOLD” value ([2]; AML03-331) was 0.98, the “GM-CSFR MFI” value ([2]; AML4) was 853 MFI and the “IL-3R MFI” value ([2]; AML4) was 1014 MFI. The “KIT MFI” value ([2]; AML4) was 5020 MFI, the “GM-CSFR FOLD” value ([2]; AML4) was 1.48 and the “IL-3R FOLD” value ([2]; AML4) was 0.99. The “KIT FOLD” value ([2]; AML4) was 0.98, the “GM-CSFR MFI” value ([2]; AML16) was 4656 MFI and the “IL-3R MFI” value ([2]; AML16) was 827 MFI. The “KIT MFI” value ([2]; AML16) was 6207 MFI, the “GM-CSFR FOLD” value ([2]; AML16) was 0.80 and the “IL-3R FOLD” value ([2]; AML16) was 0.78. For the same compound, the “KIT FOLD” value ([2]; AML16) was 0.87, the “GM-CSFR MFI” value ([2]; AML17) was 9268 MFI and the “IL-3R MFI” value ([2]; AML17) was 6591 MFI. For the same compound, the “KIT MFI” value ([2]; AML17) was 21009 MFI, the “GM-CSFR FOLD” value ([2]; AML17) was 1.01 and the “IL-3R FOLD” value ([2]; AML17) was 1.12. The “KIT FOLD” value ([2]; AML17) was 1.17, the “GM-CSFR MFI” value ([2]; AML18) was 13295 MFI and the “IL-3R MFI” value ([2]; AML18) was 2046 MFI. For the same compound, the “KIT MFI” value ([2]; AML18) was 1285 MFI, the “GM-CSFR FOLD” value ([2]; AML18) was 1.08 and the “IL-3R FOLD” value ([2]; AML18) was 1.00. For the same compound, the “KIT FOLD” value ([2]; AML18) was 1.36, the “GM-CSFR MFI” value ([2]; AML34) was 3573 MFI and the “IL-3R MFI” value ([2]; AML34) was 397 MFI. The “KIT MFI” value ([2]; AML34) was 4661 MFI, the “GM-CSFR FOLD” value ([2]; AML34) was 1.00 and the “IL-3R FOLD” value ([2]; AML34) was 0.99. The “KIT FOLD” value ([2]; AML34) was 1.07, the “GM-CSFR MFI” value ([2]; AML54) was 1872 MFI and the “IL-3R MFI” value ([2]; AML54) was 508 MFI. For the same compound, the “KIT MFI” value ([2]; AML54) was 10397 MFI, the “GM-CSFR FOLD” value ([2]; AML54) was 1.08 and the “IL-3R FOLD” value ([2]; AML54) was 0.86. The “KIT FOLD” value ([2]; AML54) was 0.90 and the “internalization of IL-3R and GM-CSFR” value ([2]; patient-derived AML cells stimulated with IL-3 and GM-CSF, result in words) was “prevented the internalization”.
